The values below are quoted from earlier work in PMC6831561, “Pharmacological and Behavioral Effects of the Synthetic Cannabinoid AKB48 in Rats” (Frontiers in Neuroscience, 2019).

Structures are written as SMILES. Read-outs that look alike come from different tables or passages of the source.

The data set has as its system extracellular DA levels. The following applies: ref De Luca et al., 2015, cited from earlier work.

As for `CCCCCn1cc(C(=O)c2cccc3ccccc23)c2ccccc21` [JWH-018, Naphthalen-1-yl-(1-pentylindol-3-yl)methanone], for the setting “JWH-018 0.25 mg/kg ip, from 20 to 70 min, Miliano et al., 2016”, the “max increase of DA in the NAc shell” value is “about 60%”. Moreover, the “DA release in the NAc shell” value runs as follows: (JWH-018 0.25 mg/kg) “increased DA release”; (JWH-018 high doses (1 and 3 mg/kg)) “no effect”; (JWH-018 lower (0.125 mg/kg) and higher (0.50 mg/kg) doses) “ineffective”.
